# Patent US10730863B2, “Bridged bicyclic compounds as farnesoid X receptor modulators” (BRISTOL-MYERS SQUIBB COMPANY, priority 2017, dated 2020)
# Legend:
# [1] = test system: Cyp7a1; experiment: Acute mouse PK/PD: Cyp7a1 gene expression in liver; assay type: in vivo; conditions: for Cyp7a1 (fold change@ 6 h relative to Vehicle): mouse PD
# Description: (§1) In Vivo Testing Example: Acute Mouse PK/PD
# (§2) Male, C57BL6/NTac mice, weighing 25-28 g, are purchased from Taconic Labs (Hudson, N.Y.) and maintained on Teklad Global 18% Protein Rodent Diet (Harlan Laboratories). After 1 week acclimation, mice are sorted into groups based upon body weight. Mice are administered a single oral dose of vehicle or experimental compound. Systemic compound exposure is evaluated in plasma derived from blood collected via the submandibular vein at 1 hour post-dose, and at study termination (6 h). At study termination, the animals are euthanized and rapidly dissected. The medial lobe of the liver is divided, with one half being homogenized and analyzed for compound exposure, and the other half saved in RNAlater (Thermo-Fisher Scientific). The ileum is also dissected and preserved in RNAlater. Tissue samples in RNAlater are homogenized with MP Biomedicals' beads. RNA is extracted using the MagMax-96 Total RNA Isolation kit (Thermo-Fisher Scientific) according to the manufacturer's protocol. RNA Concentration is determined with the Nano-Drop 8000 Spectrophotometer (Thermo Fisher). Reverse transcription is done with Invitrogen's SuperScript® VILO cDNA Synthesis Kit according to the manufacturer's protocol. Real time PCR is done with Applied Biosystems' Taqman PCR master mixture according to the manufacturer's protocol. All primers are purchased from Thermo-Fisher Scientific. Mouse genes analyzed include Nr0b2 (which encodes the small heterodimer partner, SHP), Abcb11 (which encodes the bile salt excretion pump, BSEP), Cyp7a1, & Cyp8b1 in liver, and Fgf15, Fabp6 (which encodes ileal bile acid binding protein, I-BABP), Slc51a (which encodes organic solute transporter alpha subunit, OSTA), and Slc51b (which encodes organic solute transporter beta subunit, OSTB) in the ileum. The statistical significant changes in FGF15 gene expression are expressed as fold increase and CYP7A1 expression as a percent reduction relative to vehicle control.
# [2] = test system: Fgf15; experiment: Acute mouse PK/PD: Fgf15 gene expression in ileum; assay type: in vivo; conditions: for Fgf15 (fold change@ 6 h relative to Vehicle): mouse PD
# Description: as §1, §2
# [3] = target: T1, FXR (Homo sapiens (Human), UniProt Q96RI1); experiment: FXR EC50 (FXR agonist activity reported with each example); assay type: cell-based
# [4] = test system: Cypa7a1, Ffg15; experiment: Mouse in vivo (Cyp7a1 / Fgf15 response); conditions: 3 mg/kg, @ 6 h
# [5] = target: T1, FXR; experiment: transient human FXR/Gal4-luciferase reporter assay; assay type: cell-based; conditions: Gal4-hFXR LBD fusion in HEK293 reporter cells; relative to 8 μM GW-4064
# Description: The exemplified compounds of the present invention were tested in the transient human FXR/Gal4-luciferase reporter assay, and assay results were described in the EXAMPLES section hereinbefore.
# A Gal4-hFXR fusion construct reporter system was used as the primary assay to characterize compound activity. A construct including 5 copies of the Gal4 promoter response element upstream of a firefly luciferase reporter cDNA was stably expressed in HEK293 cells. This reporter cell line was maintained in Dulbecco's Modified Eagle's medium (DMEM; Gibco) supplemented with 1% penicillin-streptomycin (P/S) solution, 500 μg/ml Zeocin and 10% charcoal/dextran-treated fetal bovine serum (cs-FBS) at 37° C. in a humidified 5% CO2 atmosphere. Another plasmid was constructed in which the human cytomegalovirus promoter in the pcDNA3.1 vector directs the expression of the cDNA encoding a fusion protein comprised of the DNA binding domain from the Gal4 transcription factor fused to the ligand binding domain from human FXR.
# The day prior to transfection, the reporter cells in culture are detached from the plate with trypsin and plated into a T75 flask at a sufficient density to achieve approximately 90% confluence the next morning. The transfection reagents are prepared by separately diluting 25 μg of the pcDNA3.1-Gal4-FXR plasmid into 1.87 mL of Opti-MEM (Thermo-Fisher), and 40 μL of Lipofectamine 2000 (Thermo-Fisher) into 1.87 mL of Opti-MEM, and then adding the diluted DNA solution into the diluted Lipofectamine 2000 solution and incubating at room temperature for 15-20 minutes. The mixture is further diluted with 10 mL of a solution comprised of DMEM, 10% cs-FBS, and 1% P/S immediately prior to transferring to the cells. The maintenance culture media is aspirated from the cells and the final transfection mixture is added before the cells are incubated overnight at 37° C. in a humidified 5% CO2 atmosphere. This protocol can be scaled up, and the transiently transfected cells can be cryopreserved in an assay-ready format.
# For compound testing, 100 nL of the compounds (serial dilutions in DMSO) are dispensed with an Echo acoustic dispenser (Labcyte) into the wells of a Corning/Costar clear bottom 384-well white plate. The transfected cells are harvested, counted, and diluted such that 10-25,000 cells in 25 μL are plated into each well of the 384-well compound assay plate. The compound-treated cells are incubated overnight at 37° C. in a humidified 5% CO2 atmosphere. The next morning 25 μL of Steady-Glo (Promega) are added to each well of the plate, the mixture is incubated for 15 min. with shaking, and luminescence is measured on an Envision (Perkin Elmer) plate reader. Background counts from cells treated with DMSO alone are subtracted from all raw counts, and the corrected values are converted to a percentage of the control response attained with 8 μM GW-4064.
# T1 sequence (Q96RI1 262-486): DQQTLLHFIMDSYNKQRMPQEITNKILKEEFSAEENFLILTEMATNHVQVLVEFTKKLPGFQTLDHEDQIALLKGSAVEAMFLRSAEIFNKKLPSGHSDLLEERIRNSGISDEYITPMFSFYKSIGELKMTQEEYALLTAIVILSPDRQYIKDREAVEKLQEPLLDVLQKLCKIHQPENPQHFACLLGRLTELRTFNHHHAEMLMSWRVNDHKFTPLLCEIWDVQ
SMILES,EC50 [5] [nM],other results
O=C(O)c1cccc(-c2noc(C34CCC(OCc5c(-c6c(Cl)cccc6Cl)noc5C5CC5)(CC3)CC4)n2)c1 [Example 27],–,Cyp7a1 (fold change@ 6 h relative to Vehicle) ([1]; dose 30 mg/kg): 0.10 fold change; Fgf15 (fold change@ 6 h relative to Vehicle) ([2]; dose 30 mg/kg): 2.8 fold change
"O=C(O)c1cc(C(F)(F)F)c2cc(OCC34CCC(OCc5c(-c6c(Cl)cncc6Cl)noc5C5CC5)(CC3)CC4)ccc2n1 [Example 101, 6-((4-((5-cyclopropyl-3-(3,5-dichloropyridin-4-yl)isoxazol-4-yl)methoxy)bicyclo[2.2.2]octan-1-yl)methoxy)-4-(trifluoromethyl)quinoline-2-carboxylic acid]",–,Cyp7a1 (fold change@ 6 h relative to Vehicle) ([1]; dose 3 mg/kg): 0.06 fold change; Fgf15 (fold change@ 6 h relative to Vehicle) ([2]; dose 3 mg/kg): 21 fold change; EC50 [3]: 8 nM
"CN1CCN(c2nc(C(=O)O)cc3ccc(C#CC45CCC(OCc6c(-c7c(Cl)cncc7Cl)noc6C6CC6)(CC4)CC5)cc23)CC1 [Example 519, 7-((4-((5-cyclopropyl-3-(3,5-dichloropyridin-4-yl)isoxazol-4-yl)methoxy)bicyclo[2.2.2]octan-1-yl)ethynyl)-1-(4-methylpiperazin-1-yl)isoquinoline-3-carboxylic acid]",–,Cypa7a1 [4]: −92%; Ffg15 [4]: +1.4 ×; EC50 [3]: 28 nM
Cn1c(C(=O)O)cc2c(/C=C/C34CCC(OCc5c(-c6c(Cl)cncc6Cl)noc5C5CC5)(CC3)CC4)cccc21 [Example 597],208,–
CCOc1cc(C(=O)O)nc2ccc(/C=C/C34CCC(OCc5c(-c6c(Cl)cncc6Cl)noc5C5CC5)(CC3)CC4)cc12 [Example 598],11,–
O=C(O)c1cc2ccc(/C=C/C34CCC(OCc5c(-c6c(Cl)cncc6Cl)noc5C5CC5)(CC3)CC4)cc2c(Cl)n1 [Example 599],15,–
O=C(O)Cc1cccc(/C=C/C23CCC(OCc4c(-c5c(Cl)cncc5Cl)noc4C4CC4)(CC2)CC3)c1 [Example 600],2040,–
COCCCOc1nc(C(=O)O)cc2ccc(/C=C/C34CCC(OCc5c(-c6c(Cl)cncc6Cl)noc5C5CC5)(CC3)CC4)cc12 [Example 601],18,–
O=C(O)Cc1ccc(/C=C/C23CCC(OCc4c(-c5c(Cl)cncc5Cl)noc4C4CC4)(CC2)CC3)c(F)c1 [Example 602],81,–
O=C(O)c1cc2ccc(/C=C/C34CCC(OCc5c(-c6c(Cl)cncc6Cl)noc5C5CC5)(CC3)CC4)cc2c(N2CCOCC2)n1 [Example 603],18,–
CCOc1nc(C(=O)O)cc2ccc(/C=C/C34CCC(OCc5c(-c6c(Cl)cncc6Cl)noc5C5CC5)(CC3)CC4)cc12 [Example 604],44.1,–
COc1ccc(/C=C/C23CCC(OCc4c(-c5c(Cl)cncc5Cl)noc4C4CC4)(CC2)CC3)cc1CCC(=O)O [Example 605],432,–
O=C(O)CCc1ccc(/C=C/C23CCC(OCc4c(-c5c(Cl)cncc5Cl)noc4C4CC4)(CC2)CC3)cc1 [Example 606],160,–
O=C(O)CCc1ccc(/C=C/C23CCC(OCc4c(-c5c(Cl)cncc5Cl)noc4C4CC4)(CC2)CC3)cc1F [Example 607],269,–
O=C(O)COc1ccc(/C=C/C23CCC(OCc4c(-c5c(Cl)cncc5Cl)noc4C4CC4)(CC2)CC3)c(F)c1 [Example 608],1030,–
COC1CN(c2nc(C(=O)O)cc3ccc(/C=C/C45CCC(OCc6c(-c7c(Cl)cncc7Cl)noc6C6CC6)(CC4)CC5)cc23)C1 [Example 609],67,–
O=C(O)c1cc2ccc(/C=C/C34CCC(OCc5c(-c6c(Cl)cncc6Cl)noc5C5CC5)(CC3)CC4)cc2c(N2CC(O)C2)n1 [Example 610],77,–
O=C(O)c1cc2ccc(/C=C/C34CCC(OCc5c(-c6c(Cl)cncc6Cl)noc5C5CC5)(CC3)CC4)cc2c(N2CC(F)C2)n1 [Example 611],22,–

SMILES,EC50 [5] [nM],other results
O=C(O)c1cc2ccc(/C=C/C34CCC(OCc5c(-c6c(Cl)cncc6Cl)noc5C5CC5)(CC3)CC4)cc2c(N2CC(CO)C2)n1 [Example 612],108,–
O=C(O)c1cc2ccc(/C=C/C34CCC(OCc5c(-c6c(Cl)cncc6Cl)noc5C5CC5)(CC3)CC4)cc2c(OC2CCC2)n1 [Example 613],298,–
O=C(O)c1cc2ccc(/C=C/C34CCC(OCc5c(-c6c(Cl)cncc6Cl)noc5C5CC5)(CC3)CC4)cc2c(OC2CC2)n1 [Example 614],51,–
O=C(O)c1cc2ccc(/C=C/C34CCC(OCc5c(-c6c(Cl)cncc6Cl)noc5C5CC5)(CC3)CC4)cc2c(OC2CCCC2)n1 [Example 615],52,–
O=C(O)COc1ccc(/C=C/C23CCC(OCc4c(-c5c(Cl)cncc5Cl)noc4C4CC4)(CC2)CC3)cn1 [Example 616],3040,–
O=C(O)COc1cc(/C=C/C23CCC(OCc4c(-c5c(Cl)cncc5Cl)noc4C4CC4)(CC2)CC3)ccn1 [Example 617],1460,–
CNC(=O)Cc1ccc(/C=C/C23CCC(OCc4c(-c5c(Cl)cncc5Cl)noc4C4CC4)(CC2)CC3)cc1 [Example 618],393,–
Clc1cncc(Cl)c1-c1noc(C2CC2)c1COC12CCC(/C=C/c3ccc(Cc4nn[nH]n4)cc3)(CC1)CC2 [Example 619],213,–
CN(C)C(=O)Cc1ccc(/C=C/C23CCC(OCc4c(-c5c(Cl)cncc5Cl)noc4C4CC4)(CC2)CC3)cc1 [Example 620],382,–
O=C(O)Cc1ccc(/C=C/C23CCC(OCc4c(-c5c(Cl)cncc5Cl)noc4C4CC4)(CC2)CC3)c(C(F)(F)F)c1 [Example 621],43,–
O=C(O)COCc1ccc(/C=C/C23CCC(OCc4c(-c5c(Cl)cncc5Cl)noc4C4CC4)(CC2)CC3)cc1 [Example 622],176,–
O=C(O)CCc1cccc(/C=C/C23CCC(OCc4c(-c5c(Cl)cncc5Cl)noc4C4CC4)(CC2)CC3)c1 [Example 623],843,–
O=C(O)CCc1cc(/C=C/C23CCC(OCc4c(-c5c(Cl)cncc5Cl)noc4C4CC4)(CC2)CC3)ccc1OCC(F)F [Example 624],438,–
O=C(O)c1ccc(/C=C/C23CCC(OCc4c(-c5c(Cl)cncc5Cl)noc4C4CC4)(CC2)CC3)cc1 [Example 625],350,–
O=C(O)c1cc(/C=C/C23CCC(OCc4c(-c5c(Cl)cncc5Cl)noc4C4CC4)(CC2)CC3)ccn1 [Example 626],879,–
O=C(O)c1cncc(/C=C/C23CCC(OCc4c(-c5c(Cl)cncc5Cl)noc4C4CC4)(CC2)CC3)c1 [Example 627],1150,–
O=C(O)c1csc(-c2ccc(/C=C/C34CCC(OCc5c(-c6c(Cl)cncc6Cl)noc5C5CC5)(CC3)CC4)cc2)n1 [Example 628],72,–
CN1CCN(c2nc(C(=O)O)cc3ccc(/C=C/C45CCC(OCc6c(-c7c(Cl)cncc7Cl)noc6C6CC6)(CC4)CC5)cc23)CC1 [Example 629],35,"Mouse in vivo Cyp7a1 (printed Cypa7a1), change relative to vehicle ([1]; mouse, 3 mg/kg single oral dose, @ 6 h, liver): −97%; Mouse in vivo Fgf15 (printed Ffg15), fold increase relative to vehicle ([2]; mouse, 3 mg/kg single oral dose, @ 6 h, ileum): +7.1 x"
